This note sets out measurements from EP0471298B1, “Carbamoyl-1-(pyridinylalkyl)-1H-indoles, indolines and related analogs” (priority 1990, dated 1992).

pIC50: −log10 of the molar value. Where two headings read alike, the source gives them in different places.

The assay deals with T1, Acetylcholinesterase (AChE) (Rattus norvegicus, UniProt P37136).
T1 construct: corpora striata dissected free, weighed and homogenized in 19 volumes; from tissue; host or cells: rat corpora striata (brain) homogenate, male Wistar rats
Nature of the assay: In vitro inhibition of acetylcholinesterase activity in rat striatum (modified Ellman method). Format: biochemical. From the text: Cholinesterases are found throughout the body, both in the brain and in serum. However, only brain acetylcholinesterease (AChE) distribution is correlated with central cholinergic innervation. […] We have determined in vitro inhibition of acetylcholinesterase activity in rat striatum according to the method described below.
In Vitro Inhibition of Acetylcholinesterase Activity in Rat Striatum
The method described below was used in this invention for assaying anticholinesterase activity. This is a modification of the method of Ellman et al., Biochem. Pharmacol. 7, 88 (1961).
• A. Reagents - • 1. 0.05 M Phosphate buffer, pH 7.2 • (a) 6.85 g NaH₂PO₄·H₂O/100 mi distilled H₂O • (b) 13.40 g Na₂HPO₄·7H₂O/100 ml distilled H₂O • (c) add (a) to (b) until pH reaches 7.2 • (d) Dilute 1:10 • 2. […] If active, IC₅₀ values are determined from the inhibitory activity of subsequent concentrations. • B. Tissue Preparation - Male Wistar rats are decapitated, brains rapidly removed, corpora striata dissected free, weighed and homogenized in 19 volumes (approximately 7 mg protein/ml) of 0.05 M phosphate buffer, pH 7.2, using a Potter-Elvehjem homogenizer. […] Assay Enzyme activity is measured with the Beckman DU-50 spectrophotometer. […] This program also calculates the rate of absorbance change for each cuvette. […]

T1 sequence (P37136 32-614): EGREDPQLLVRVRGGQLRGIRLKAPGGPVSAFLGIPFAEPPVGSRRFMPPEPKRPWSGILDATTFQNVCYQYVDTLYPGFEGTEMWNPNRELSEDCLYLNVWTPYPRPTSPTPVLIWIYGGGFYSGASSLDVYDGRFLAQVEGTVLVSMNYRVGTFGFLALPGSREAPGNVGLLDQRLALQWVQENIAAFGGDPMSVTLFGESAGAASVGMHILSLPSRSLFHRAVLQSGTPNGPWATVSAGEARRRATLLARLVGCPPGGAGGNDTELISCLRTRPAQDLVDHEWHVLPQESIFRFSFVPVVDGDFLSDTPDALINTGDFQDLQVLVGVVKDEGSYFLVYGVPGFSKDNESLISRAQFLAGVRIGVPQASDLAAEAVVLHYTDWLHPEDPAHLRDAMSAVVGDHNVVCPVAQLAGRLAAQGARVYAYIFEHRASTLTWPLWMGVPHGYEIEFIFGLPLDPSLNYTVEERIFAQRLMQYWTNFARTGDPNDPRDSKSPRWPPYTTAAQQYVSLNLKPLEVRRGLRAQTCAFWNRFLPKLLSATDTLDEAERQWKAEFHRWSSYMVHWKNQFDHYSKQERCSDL

Turning to `O=C(NCc1ccccc1)Oc1ccc2c(ccn2Cc2ccncc2)c1` [Example 3, 1-(4-Pyridinylmethyl)-1H-indol-5-yl phenylmethylcarbamate], the pIC50 (Brain acetylcholinesterase, rat striatum homogenate, preincubated 10 minutes at 37°C, acetylthiocholine 5 mM final, pH 7.2, read-out: Inhibitory Concentration IC₅₀) is 4.90.
The compound `CNC(=O)Oc1ccc2c(ccn2Cc2ccncc2)c1` [Example 1, 1-(4-Pyridinylmethyl)-1H-indol-5-yl methylcarbamate] had a pIC50 of 5.17.
